Entries after “also recorded” stand apart in the source; their conditions may differ. Where two headings read alike, the source gives them in different places.
Key:
[1] = system: DBA/2CrSc1 mice; experiment: Treadmill test in mice; format: in vivo; settings: intraperitoneal, compared to DMSO-treated group
Procedure: (§1) Seven-week-old DBA/2CrSc1 mice were injected intraperitoneally with MNS, or DMSO as a control. […] In addition, the formation of respiratory chain supercomplexes by BN-PAGE were compared using mitochondrial fractions extracted from the extensor digitorum longus and soleus muscles of the mice in each group.

[2] = system: mitochondrial respiratory chain supercomplex formation (NDUFB8-AcGFP / COX8A-DsRed monomer); experiment: FRET (cFRET/Donor) in C2C12 cells stably co-expressing NDUFB8-AcGFP and COX8A-DsRed monomer; format: cell-based, mouse
Excerpt: In addition, the protein in which the subunit NDUFB8 of respiratory chain complex I was labeled with AcGFP, and the protein in which the subunit COX8A of respiratory chain complex IV labeled with DsRed monomer, were co-expressed, whereby the fluorescence of DsRed monomer was detected at the excitation wavelength of AcGFP, and the FRET efficiency can be calculated (FIG. 2B).
FRET signals between respiratory chain complex subunits in stably expressing cells were examined using C2C12 cells stably expressing both NDUFB8-AcGFP and COX8A-DsRed monomer and C2C12 cells stably expressing both UQCR11-AcGFP and ATP5F1c-DsRed monomer.
The sequences of siRNAs are as follows.
In the primary screening, the cFRET/Donor of living cells with 40 μM of each 1280 compound was measured using the C2C12 expressing cells stably co-expressing NDUFB8-AcGFP and COX8A-DsRed monomer established in this study (FIG. 5B). In the secondary screening, cFRET/Donor was measured by adding 40, 20, 10, 2.5, or 0.6 μM of each compound.
MNS was added to stably expressed C2C12 cells stepwise from low to high concentrations, and the cFRET/Donor was measured. […] In the following experiments, the respiratory chain supercomplex was examined in C2C12 cells under the condition of 1 μM addition.

[3] = system: C2C12 cells; experiment: Oxygen consumption, XFp Extracellular Flux Analyzer; format: cell-based, mouse; settings: 1 μM, compared to solvent-only control
Procedure: Oxygen consumption rate (OCR) was measured as follows. The C2C12 cells were seeded (5×10^3 cells/well) in […] (Agilent Tech, CA, USA) and incubated overnight before measuring OCR and ECAR. One hour before the measurement, the medium was replaced with XF base medium containing 1 mM sodium pyruvate, 2 mM […] and 25 mM glucose (Agilent Tech). Basal respiration, ATP production, and maximal respiration (spare respiratory capacity) of C2C12 cells were measured using XFp Extracellular Flux Analyzer (Agilent Tech) and Mito Stress Kit for XFp (Agilent Tech). The drugs were added in the following order: 1.0 μM oligomycin, 0.5 μM carbonyl cyanide-p-trifluoromethoxyphenylhydrazone, and 0.5 μM rotenone. The baseline (basal) OCR was measured three times before and after the addition of the drugs.

[4] = system: respiratory chain supercomplexes I+III2+IVn (n=1-2), I+III2, III2+IV; experiment: BN-PAGE of mitochondrial fractions from extensor digitorum longus and soleus muscles of mice; format: in vivo; settings: mitochondria of both extensor digitorum longus and soleus muscles, compared to DMSO
Procedure: as §1

[5] = system: DBA/2CrSc1 mice; experiment: Wire-hang test in mice; format: in vivo; settings: intraperitoneal, compared to DMSO-treated group
Procedure: as §1

[6] = system: respiratory chain supercomplexes I+III2+IV, I+III2, III2+IV; experiment: BN-PAGE of mitochondrial fractions extracted from C2C12 cells; format: cell-based, mouse; settings: compound added, compared to DMSO
[7] = Toxicity and body weight in mice, intraperitoneal injection; settings: seven-week-old DBA/2CrSc1 mice, vs DMSO
Procedure: as §1

[8] = system: Syk; experiment: Syk mRNA and protein expression after siRNA; format: cell-based, mouse; settings: C2C12 cells
Excerpt: Both mRNA and protein expression levels of Syk in C2C12 cells were suppressed by the above #1 and #2 siRNAs. The above siSyk was transfected into cells stably expressing NDUFB8-AcGFP and COX8A-DsRed monomer, and FRET signals were examined. FRET efficiency was increased in siSyk treatment, compared to siControl treatment (FIG. 7A). The formation of respiratory chain supercomplexes was compared using the same siRNA and mitochondrial fractions extracted from C2C12 cells in which Syk expression was suppressed, according to BN-PAGE. […] Oxygen consumption of C2C12 cells in siControl or siSyk treatment was measured using XFp Extracellular Flux Analyzer.

[9] = system: mitochondrial function; settings: already reported; cited from earlier work
[10] = compound added, compared to DMSO
[11] = primary 40 μM; secondary 40, 20, 10, 2.5, 0.6 μM; then BN-PAGE

Row | Molecule | running distance [1] | running time [1] | outcome of three-step screening (FRET and BN-PAGE) of LOPAC 1280 for compounds that promote respiratory chain supercomplex formation [2, 11] | basal respiration [3] | maximal respiration (spare respiratory capacity) [3] | time holding the wire [5] | formation of respiratory chain supercomplexes I+III2+IV, I+III2, III2+IV (BN-PAGE) [6] | change in body weight [7] | toxicity [7] | mRNA expression level of Syk [8] | protein expression level of Syk [8] | also measured
1 | O=[N+]([O-])/C=C/c1ccc2c(c1)OCO2 [MNS, 3,4-methylenedioxy-β-nitrostyrene] | significantly longer | significantly longer | screened | significant increases | significant increases | significantly prolonged | increased | no change | no significant toxicity |  |  | FRET efficiency between subunit fluorescent fusion proteins of respiratory chain complexes I and IV [2, 10]: increase; corrected value of cFRET/Donor [2, 10]: significantly increased; also recorded: improvement; EC50 ([2]; read-out: 50% effective concentration (EC50) from cFRET/Donor dose-response curve; stably expressed C2C12 cells, added stepwise from low to high concentrations): 574 nM; formation of respiratory chain supercomplexes I+III2+IVn (n=1-2), I+III2, III2+IV (BN-PAGE) [4]: increased
2 | siSyk #1: siRNA against Syk, sense strand SEQ ID NO:1 and antisense strand SEQ ID NO:2 (sense AAUGAAUUCAACAUACAGGGA; antisense CCUGUAUGUUGAAUUCAUUGA; listed as RNA, chemistry not given here) |  |  |  |  |  |  |  |  |  | suppressed | suppressed | 
3 | COc1ccc(-c2cc3nccn3c(Nc3ncccc3C(N)=O)n2)cc1OC [BAY61-3606, 2-[[7-(3,4-dimethoxyphenyl)imidazo[1,2-c]pyrimidin-5-yl]amino]pyridine-3-carboxamide] | significantly longer | significantly longer |  | significant increases | significant increases | significantly prolonged | increased | no change | no significant toxicity |  |  | EC50 ([2]; stably expressed C2C12 cells, added stepwise from low to high concentrations; read-out: 50% effective concentration (EC50) from cFRET/Donor dose-response curve): 1000 nM; ATP production [3]: significant increases
4 | CC1(C)CCC2=C(O1)c1ccccc1C(=O)C2=O [Beta-lapachone] |  |  | screened |  |  |  |  |  |  |  |  | mitochondrial function [9]: improve mitochondrial function
5 | siSyk #2: siRNA against Syk, sense strand SEQ ID NO:3 and antisense strand SEQ ID NO:4 (sense UUAAUCUUGACAGUAAGACAC; antisense GUCUUACUGUCAAGAUUAAUU; listed as RNA, chemistry not given here) |  |  |  |  |  |  |  |  |  | suppressed | suppressed | 
